Assay results reported in paper PMC9692542, “First Report of the Molecular Mechanism of Resistance to Tribenuron-Methyl in Silene conoidea L” (Plants, 2022).

Test system: T1, ALS (acetolactate synthase)
T1 construct: native enzyme in leaf extract, not purified
Assay: in vitro ALS activity of leaf extract, colorimetric acetoin ([…] nm)
Format: biochemical, Silene conoidea
Conditions: leaf extract of susceptible population; read-out: I50 (μM) ^c

## COC(=O)c1ccccc1S(=O)(=O)NC(=O)N(C)c1nc(C)nc(OC)n1 [tribenuron-methyl, methyl 2-[[[[N-(4-methoxy-6-methyl-1,3,5triazin-2-yl)methyl-amino]carbonyl]amino]sulfonyl]benzoate]
  IC50: 11.6 ± 1 µM
